Measured values as given in patent publication US9732075B2, “Benzimidazole-proline derivatives” (IDORSIA PHARMACEUTICALS LTD, priority 2012, dated 2017).

What was measured:
[1] = target: human orexin-2 receptor (Homo sapiens (Human), UniProt O43614); test: In vitro assay: intracellular calcium measurements (FLIPR), antagonistic activity; type: cell-based; conditions: CHO cells expressing human orexin-2 receptor, orexin-A agonist, geometric mean, read-out: IC50 Ox2
Outline: (§1)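 IC50s are geometric means, possibly reference-normalized, from FLIPR calcium peaks in CHO cells bearing human orexin-1 or orexin-2 receptor. Fluo-4 AM/probenecid-loaded cells received antagonist for 120 min before challenge with orexin-A (final 3 nM, ~EC70), with responses compared against vehicle controls.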

[2] = target: human orexin-1 receptor (Homo sapiens (Human), UniProt O43613); test: as above; type: cell-based; conditions: CHO cells expressing human orexin-1 receptor, orexin-A agonist, geometric mean, read-out: IC50 Ox1
human orexin-1 receptor, sequence (O43613 whole entry): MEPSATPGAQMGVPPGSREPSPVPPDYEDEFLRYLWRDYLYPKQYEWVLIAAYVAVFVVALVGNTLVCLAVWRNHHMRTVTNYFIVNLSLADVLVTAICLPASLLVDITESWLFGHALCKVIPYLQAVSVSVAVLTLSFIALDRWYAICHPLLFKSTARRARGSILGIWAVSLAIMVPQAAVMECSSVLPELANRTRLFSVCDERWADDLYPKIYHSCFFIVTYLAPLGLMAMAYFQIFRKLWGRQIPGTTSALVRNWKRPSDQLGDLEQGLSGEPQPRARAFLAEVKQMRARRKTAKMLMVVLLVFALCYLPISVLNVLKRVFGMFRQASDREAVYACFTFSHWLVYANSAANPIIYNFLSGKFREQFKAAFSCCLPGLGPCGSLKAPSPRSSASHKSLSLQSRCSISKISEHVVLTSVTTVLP
Outline: as §1

human orexin-2 receptor, sequence (O43614 whole entry): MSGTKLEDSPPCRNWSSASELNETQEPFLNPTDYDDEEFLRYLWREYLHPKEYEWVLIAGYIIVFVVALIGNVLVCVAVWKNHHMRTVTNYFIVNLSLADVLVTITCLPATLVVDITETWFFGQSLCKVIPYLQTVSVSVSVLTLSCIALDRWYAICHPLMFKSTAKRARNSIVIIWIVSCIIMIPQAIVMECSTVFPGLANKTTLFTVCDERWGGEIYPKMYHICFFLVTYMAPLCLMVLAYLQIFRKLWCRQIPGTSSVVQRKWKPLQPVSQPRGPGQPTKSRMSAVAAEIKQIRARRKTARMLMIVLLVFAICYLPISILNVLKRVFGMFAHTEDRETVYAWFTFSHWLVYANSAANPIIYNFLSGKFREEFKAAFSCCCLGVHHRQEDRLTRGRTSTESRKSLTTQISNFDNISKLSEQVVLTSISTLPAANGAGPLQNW

IC50 [1] | IC50 [2] | SMILES
13 nM | 24 nM | Cc1cc(C)c2nc([C@@H]3CCCN3C(=O)c3nc(C)sc3-c3ccccc3)[nH]c2c1 [Ex. 1.142]
4 nM | 3 nM | CO[C@@H]1C[C@@H](c2nc3ccc(Cl)c(C)c3[nH]2)N(C(=O)c2nc(C)sc2-c2ccc(Cl)cc2)C1 [Ex. 3.35]
13 nM | 446 nM | CSc1ccc2nc([C@@H]3CCCN3C(=O)c3ccccc3-n3nccn3)[nH]c2c1 [Ex. 1.47]
517 nM | 115 nM | C[C@@]1(c2nc3c(F)c(F)ccc3[nH]2)CCCN1C(=O)c1cc(Cl)ccc1-n1nccn1 [Ex. 5.200]
64 nM | 115 nM | CSc1ccc2nc([C@@H]3CCCN3C(=O)c3nc(C4CC4)sc3-c3ccc(C)cc3)[nH]c2c1 [Ex. 1.41]
0.8 nM | 3 nM | C=C1C[C@@H](c2nc3ccc(Cl)c(C)c3[nH]2)N(C(=O)c2nc(C)sc2-c2ccc(Cl)c(Cl)c2)C1 [Ex. 6.126]
6 nM | 317 nM | C=C1C[C@@H](c2nc3cc(OC)ccc3[nH]2)N(C(=O)c2cc(C)ccc2-n2nccn2)C1 [Ex. 6.12]
97 nM | 47 nM | Cc1ccc(-c2ncccn2)c(C(=O)N2CCC[C@@]2(C)c2nc3cc(F)c(Br)cc3[nH]2)c1 [Ex. 5.282]
193 nM | 3 nM | Cc1ccc(-n2nccn2)c(C(=O)N2CC[C@H](C)[C@H]2c2nc3c(C)c(Cl)ccc3[nH]2)c1 [Ex. 4.35]
11 nM | 4 nM | Cc1nc(C(=O)N2CCCC2c2nc3c(C)c(Cl)ccc3[nH]2)c(-c2ccccc2)s1 (stereo not shown) [Ex. 1.133]
173 nM | 26 nM | Cc1ccc(-c2ccccc2)c(C(=O)N2CCC[C@@]2(C)c2nc3cc(OC(F)(F)F)ccc3[nH]2)c1 [Ex. 5.236]
852 nM | 149 nM | Cc1ccc(-n2nccn2)c(C(=O)N2CCC[C@@]2(C)c2nc3c(F)c(F)ccc3[nH]2)n1 [Ex. 5.205]
3 nM | 19 nM | C=C1C[C@@H](c2nc3ccc(Cl)c(C)c3[nH]2)N(C(=O)c2nc(C)sc2-c2ccc(OC)nc2)C1 [Ex. 6.117]
411 nM | 113 nM | Cc1ccc(-n2nccn2)c(C(=O)N2CCC[C@@]2(C)c2nc3cc(F)c(Br)cc3[nH]2)c1F [Ex. 5.124]
6 nM | 5 nM | Cc1nc(C(=O)N2CCC[C@@]2(C)c2nc3c(C)c(C)c(Br)cc3[nH]2)c(-c2ccccc2C)s1 [Ex. 5.271]
91 nM | 23 nM | Cc1ccc(C(=O)N2CCC[C@@]2(C)c2nc3cc(OC(F)(F)F)ccc3[nH]2)c(-n2nccn2)c1 [Ex. 5.238]
110 nM | 114 nM | COc1ccc2nc([C@@H]3CCCN3C(=O)c3cnc(C)nc3-c3ccc(Cl)c(Cl)c3)[nH]c2c1 [Ex. 1.28]
244 nM | 27 nM | C[C@@]1(c2nc3cc(C(F)(F)F)c(Cl)cc3[nH]2)CCCN1C(=O)c1ccccc1-n1cccn1 [Ex. 5.141]
40 nM | 33 nM | COc1cc2nc([C@]3(C)CCCN3C(=O)c3cc(C)ccc3-n3nccn3)n(CCF)c2cc1OC [Ex. 7.48]
1630 nM | 3 nM | Cc1nc(C(=O)N2CC[C@H](C)[C@H]2c2nc3cc(Cl)c(C)cc3[nH]2)c(-c2ccc(Cl)cc2)s1 [Ex. 4.78]

IC50 [1] | IC50 [2] | SMILES
54 nM | 59 nM | COc1cccc(-c2ccccc2C(=O)N2CCC[C@@]2(C)c2nc3cc(C)c(C)cc3[nH]2)c1 [Ex. 5.101]
3 nM | 12 nM | C=C1C[C@@H](c2nc3cc(C)c(C)cc3[nH]2)N(C(=O)c2ccc(C)cc2-n2nccn2)C1 [Ex. 6.198]
41 nM | 35 nM | COc1ccc(-c2ccc(C(F)(F)F)cc2)c(C(=O)N2CCC[C@@]2(C)c2nc3ccc(Cl)c(C)c3[nH]2)c1F [Ex. 5.305]
27 nM | 458 nM | COc1ccc2nc([C@@H]3CCCN3C(=O)c3cc(OC)c(OC)cc3-n3nccn3)[nH]c2c1 [Ex. 1.162]
46 nM | 202 nM | Cc1ccc(-n2nccn2)c(C(=O)N2CCC[C@H]2c2nc3cccc(Cl)c3[nH]2)c1 [Ex. 1.6]
250 nM | 252 nM | CCOc1ccc(-c2ccc(C)cc2C(=O)N2CCC[C@@]2(C)c2nc3cc(C(F)(F)F)c(Cl)cc3[nH]2)cc1 [Ex. 5.162]
77 nM | 1060 nM | C=C1C[C@@H](c2nc3cccc(C)c3[nH]2)N(C(=O)c2nc(C)ccc2-n2cccn2)C1 [Ex. 6.105]
4440 nM | 111 nM | COc1ccc(-c2sc(C)nc2C(=O)N2CC[C@H](C)[C@H]2c2nc3cc(OC)c(OC)cc3[nH]2)cn1 [Ex. 4.53]
18 nM | 12 nM | CSc1cccc2nc([C@@H]3CCCN3C(=O)c3nc(C)sc3-c3cccc(C(F)(F)F)c3)[nH]c12 [Ex. 1.64]
62 nM | 368 nM | C=C1C[C@@H](c2nc3ccccc3[nH]2)N(C(=O)c2nc(C)sc2-c2cccc(Cl)c2)C1 [Ex. 6.43]
190 nM | 46 nM | COCCn1c([C@]2(C)CCCN2C(=O)c2cc(C)ccc2-c2cccc(OC)c2)nc2cc(C)c(C)cc21 [Ex. 7.53]
62 nM | 154 nM | COc1cccc(-c2sc(C)nc2C(=O)N2CCC[C@H]2c2nc3ccc(SC)cc3[nH]2)c1 [Ex. 1.37]
1170 nM | 28 nM | Cc1ccc(-n2cccn2)c(C(=O)N2CC[C@H](C)[C@H]2c2nc3c(C)cc(Cl)cc3[nH]2)c1 [Ex. 4.95]
130 nM | 35 nM | Cc1ccc(-n2nccn2)c(C(=O)N2CCC[C@@]2(C)c2nc3cc(C)c(C)cc3[nH]2)n1 [Ex. 5.62]
16.5 nM | 5 nM | Cc1cc(C(=O)N2CCC[C@@]2(C)c2nc3cc(OC(F)(F)F)ccc3[nH]2)c(-n2nccn2)cc1C [Ex. 5.235]
89 nM | 45 nM | Cc1nc(C(=O)N2CCCC2c2nc3c(C(F)(F)F)cccc3[nH]2)c(-c2cccc(Cl)c2)s1 (stereo not shown) [Ex. 1.105]
17 nM | 17 nM | Cc1cc(C)c2nc(C3CCCN3C(=O)c3nc(C)sc3-c3cccc(Cl)c3)[nH]c2c1 (racemic) [Ex. 1.102]
2170 nM | 7 nM | Cc1ccc(-c2sc(C)nc2C(=O)N2CC[C@H](C)[C@H]2c2nc3cc(C(F)(F)F)ccc3[nH]2)cc1 [Ex. 4.140]
380 nM | 34 nM | Cc1ccc(-c2ncccn2)c(C(=O)N2CCC[C@@]2(C)c2nc3cc(OC(F)(F)F)ccc3[nH]2)c1 [Ex. 5.281]
21 nM | 483 nM | CSc1ccc2nc([C@@H]3CCCN3C(=O)c3c(C)cccc3-n3nccn3)[nH]c2c1 [Ex. 1.154]

IC50 [1] | IC50 [2] | SMILES
532 nM | 38 nM | C[C@@]1(c2nc3cc(Cl)c(C(F)(F)F)cc3[nH]2)CCCN1C(=O)c1nc(-c2ccccc2F)sc1-c1ccc(F)cc1 [Ex. 5.289]
2030 nM | 56 nM | Cc1ccccc1-c1nc(C(=O)N2CCC[C@@]2(C)c2nc3c(C)c(Cl)ccc3[nH]2)c(-c2ccc(F)cc2)s1 [Ex. 5.228]
78 nM | 195 nM | COc1ccc2nc([C@@H]3CCCN3C(=O)c3cnc(C)nc3-c3ccc(C)c(C)c3)[nH]c2c1 [Ex. 1.31]
992 nM | 184 nM | COc1cccc(C#Cc2ccccc2C(=O)N2CCC[C@@]2(C)c2nc3cc(C(F)(F)F)ccc3[nH]2)c1 [Ex. 5.250]
4 nM | 96 nM | CO[C@@H]1C[C@@H](c2nc3ccc(Cl)c(C)c3[nH]2)N(C(=O)c2ccc(C)cc2-n2nccn2)C1 [Ex. 3.15]
18 nM | 15 nM | Cc1cccc(-c2ccc(C)cc2C(=O)N2CCC[C@@]2(C)c2nc3cc(C)c(C)cc3n2C)c1 [Ex. 7.25]
86 nM | 1 nM | COc1cccc(C#Cc2ccccc2C(=O)N2CC[C@H](C)[C@H]2c2nc3c(C)c(Cl)ccc3[nH]2)c1 [Ex. 4.134]
28 nM | 5 nM | Cc1ccc(C(=O)N2CCC[C@@]2(C)c2nc3cc(C(F)(F)F)c(Cl)cc3[nH]2)c(-n2nccn2)c1 [Ex. 5.140]
25 nM | 573 nM | C=C1C[C@@H](c2nc3cc(C(C)(C)C)ccc3[nH]2)N(C(=O)c2c(C)cccc2-n2nccn2)C1 [Ex. 6.167]
9 nM | 883 nM | C=C1C[C@@H](c2nc3ccc(OC)cc3[nH]2)N(C(=O)c2c(-n3nccn3)ccc(C)c2F)C1 [Ex. 6.141]
130 nM | 258 nM | COc1cc2nc([C@]3(C)CCCN3C(=O)c3ccccc3-n3cccn3)[nH]c2cc1OC [Ex. 5.81]
1710 nM | 13 nM | Cc1nc(C(=O)N2CC[C@H](C)[C@H]2c2nc3c(C(F)(F)F)cccc3[nH]2)c(-c2cc(F)cc(F)c2)s1 [Ex. 4.157]
1940 nM | 9 nM | Cc1nc(C(=O)N2CC[C@H](C)[C@H]2c2nc3c(F)c(F)ccc3[nH]2)c(-c2cccc(Cl)c2)s1 [Ex. 4.23]
27 nM | 3 nM | Cc1cccc(-c2sc(C)nc2C(=O)N2CCC[C@@]2(C)c2nc3ccc(F)c(F)c3[nH]2)c1 [Ex. 5.210]
74 nM | 30 nM | Cc1nc(C(=O)N2CCCC2c2nc3c(Br)cc(F)cc3[nH]2)c(-c2cccc(Cl)c2)s1 (stereo not shown) [Ex. 1.114]
529 nM | 23 nM | Cc1cc2[nH]c([C@@H]3[C@@H](C)CCN3C(=O)c3cc(F)ccc3-c3ccccn3)nc2cc1Cl [Ex. 4.106]
4040 nM | 77 nM | COc1ccc(-c2nc(C(=O)N3CCC[C@@]3(C)c3nc4cc(Cl)c(C(F)(F)F)cc4[nH]3)c(-c3ccc(F)cc3)s2)cc1 [Ex. 5.293]
10 nM | 11 nM | C=C1CN(C(=O)c2cc(C)c(C)cc2-n2nccn2)C(C)(c2nc3cc(OC)ccc3[nH]2)C1 (stereo not shown) [Ex. 6.159]
401 nM | 142 nM | Cc1ccc(-c2cccc(OC(F)(F)F)c2)c(C(=O)N2CCC[C@@]2(C)c2nc3cc(C(F)(F)F)c(Cl)cc3[nH]2)c1 [Ex. 5.163]
